Data reported in patent publication US11760784B2, “Compositions comprising PEDF-derived short peptides and uses thereof” (BRIM Biotechnology, Inc., priority 2016, dated 2023).
Entries after “also recorded” stand apart in the source; their conditions may differ.

Tested on: desiccating stress-induced dry eye
Assay: Tear production by phenol red thread test in CEC dry eye mice
Type: in vivo, C57BL/6 mice
Details: CEC 14 days
Method: Dry eye was induced by placing mice in a controlled environment chamber (CEC) as previously described (Barabino et al., 2005). Briefly, mice placed in the CEC were exposed to a relative humidity (RH)<25%, temperature of 20 to 22° C., and airflow of 15 L/min, 12 hours per day. Non-stressed (NS) mice without stress-induced dry eye were kept in a normal environment (RH >50%, no air flow, temperature of 21-23° C.) for the same duration. Corneal fluorescein staining and
Tear production was measured with phenol red-impregnated cotton threads (Zone-Quick; Oasis, Glendora, CA). The validity of this test in mice was performed as previously described (Dursun et al., 2002). The threads were held with jeweler forceps and placed in the lateral canthus for 60 seconds. The tear production is expressed in millimeters of thread that is wet by the tear and turned red.
To determine whether PDSP have therapeutic effects in a desiccating stress (DS)-induced ocular surface defects, mice were housed at controlled environment chamber (CEC) for 14 days to create ocular surface disruption. After 14 days in CEC, we used mice with fluorescence scores that are above 2 for the first experiments (FIG. 1A). […]

PDSP: 29mer, residues 93-121 of human PEDF: SLGAEQRTESIIHRALYYDLISSPDIHGT (SEQ ID NO:4) (listed as Homo sapiens)
tear production (cotton thread test) (then PDSP for 5 days, vehicle 4.5±0.2, day 0 3.8±0.5, non-stressed 5.4±0.4): 5±0.3 mm | tear production (phenol red thread), human vs mouse PDSP (then peptide for 3 days (FIG. 12), listed as human PDSP): capable of restore; also recorded: improved tear productions to the same extent
